For 18 compounds, IC50 results are on record in ChEMBL document CHEMBL1143897, “Aryl-indolyl maleimides as inhibitors of CaMKIIdelta. Part 2: SAR of the amine tether” (Bioorg Med Chem Lett, 2008).

The target in the experiment is Calcium/calmodulin-dependent protein kinase type II subunit delta (Homo sapiens, UniProt Q13557). As to the kind of experiment: Inhibition of CaMK2delta.
Calcium/calmodulin-dependent protein kinase type II subunit delta, sequence (Q13557 whole entry): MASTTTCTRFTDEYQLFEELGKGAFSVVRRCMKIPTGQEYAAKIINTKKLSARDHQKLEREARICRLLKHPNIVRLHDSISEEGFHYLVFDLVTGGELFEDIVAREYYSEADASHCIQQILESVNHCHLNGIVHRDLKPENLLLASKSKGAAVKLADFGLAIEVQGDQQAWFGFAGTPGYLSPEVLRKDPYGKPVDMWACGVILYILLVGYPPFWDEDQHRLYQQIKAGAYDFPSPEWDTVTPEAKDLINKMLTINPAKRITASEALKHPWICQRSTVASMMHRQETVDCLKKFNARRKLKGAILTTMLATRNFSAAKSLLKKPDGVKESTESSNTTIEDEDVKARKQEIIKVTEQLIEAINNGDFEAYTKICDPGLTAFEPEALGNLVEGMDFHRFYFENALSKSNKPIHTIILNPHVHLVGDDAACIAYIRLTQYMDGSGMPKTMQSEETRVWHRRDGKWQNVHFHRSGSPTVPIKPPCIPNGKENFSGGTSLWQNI
As usually defined, the IC50 is the concentration that gives 50% inhibition. Take `CN1CCCC1CCn1cc(C2=C(c3c[nH]c4ccccc34)C(=O)NC2=O)c2ccccc21` (stereo not drawn): the IC50 was found to be 1.89 µM. For `CC(C)(C)OC(=O)NCCCn1cc(C2=C(c3c[nH]c4ccccc34)C(=O)NC2=O)c2ccccc21` the value was 3.81 µM. Turning to `Cn1cc(C2=C(c3c[nH]c4ccc(Br)cc34)C(=O)NC2=O)c2ccccc21`, the IC50 was determined as 0.87 µM.

For the compound `NCCCn1cc(C2=C(c3ccccc3)C(=O)NC2=O)c2ccccc21`, the concentration for half-maximal inhibition (IC50) turned out to be 1.35 µM. For `Cn1cc(C2=C(c3cn(CCCN)c4ccccc34)C(=O)NC2=O)c2ccccc21` the value was 0.31 µM; for `Cn1cc(C2=C(c3cn(C4CCN(Cc5ccccc5)CC4)c4ccccc34)C(=O)NC2=O)c2ccccc21`, 1.87 µM. Regarding `O=C1NC(=O)C(c2c[nH]c3ccccc23)=C1c1ccccc1`, the IC50 was > 20 µM. `NCCCn1cc(C2=C(c3c[nH]c4ccc(Br)cc34)C(=O)NC2=O)c2ccccc21`: the 50% inhibitory concentration (IC50) came to 0.034 µM.

Take `O=C1NC(=O)C(c2cn(CCC3CCCCN3)c3ccccc23)=C1c1c[nH]c2ccccc12` (stereo not drawn): the IC50 worked out at 1.45 µM. For `NCC(O)Cn1cc(C2=C(c3ccccc3)C(=O)NC2=O)c2ccccc21` (stereo not drawn) the value was 0.45 µM; for `O=C1NC(=O)C(c2c[nH]c3ccccc23)=C1c1cccc(Br)c1`, 3.53 µM; for `CC(C)(C)OC(=O)NCCCn1cc(C2=C(c3ccccc3)C(=O)NC2=O)c2ccccc21`, > 20 µM. As for `Cn1cc(C2=C(c3cn(C4CCCNC4)c4ccccc34)C(=O)NC2=O)c2ccccc21` (stereo not drawn), the IC50 came out at 0.3 µM. For `CC(C)(C)OC(=O)NCCCn1cc(C2=C(c3c[nH]c4ccc(Br)cc34)C(=O)NC2=O)c2ccccc21` the value was 7.54 µM; for `NCCCn1cc(C2=C(c3cccc(Br)c3)C(=O)NC2=O)c2ccccc21`, 0.18 µM; for `O=C1NC(=O)C(c2cn(CCCN3CCNCC3)c3ccccc23)=C1c1c[nH]c2ccccc12`, 2.02 µM. Turning to `Cn1cc(C2=C(c3ccccc3)C(=O)NC2=O)c2ccccc21`, the concentration for half-maximal inhibition (IC50) was > 20 µM. For `O=C1NC(=O)C(c2c[nH]c3ccccc23)=C1c1c[nH]c2ccccc12` [RO-316233] the value was 1.19 µM.
